In patent publication US20240052028A1, “ENHANCEMENT OF ANTI-TUMOR PHAGOCYTOSIS” (The Board of Trustees of the Leland Stanford Junior …, priority 2020, published 2024):

Key:
Type in all cases: cell-based, mouse
Safe^KO Ramos cells = test: Time-lapse phagocytosis assay, uptake of pHrodo-labeled Safe^KO Ramos cells by J774 macrophages with anti-CD20 antibodies and GPR84 agonists; conditions: anti-CD20 antibodies, GPR84 agonist added (FIG. 4D)
Method: (§1) Time-lapse microscopy assay for phagocytosis J774 cells were lifted by scraping, counted, and plated in 24 well tissue culture plates at a density of 100,000 cells per well in 0.5 ml media 48 h prior to the start of the experiment. At 24 h after plating, media was aspirated and replaced with fresh media containing 10 ng ml^−1 lipopolysaccharide (LPS) (Sigma). On the day of the experiment, target cells that had been transduced with sgRNAs, co-expressed with GFP and PuroR, and selected with puromycin as described above, were lifted, pelleted, and counted. Cells were washed three times in dPBS, incubated in dPBS containing 6.6 ng ml-1 pHrodo-Red succinimidyl ester (Thermo Fisher) at a cell concentration of 1M ml^−1 for 30 minutes, washed once, and resuspended in DMEM supplemented with 2 mM glutamine, 100 units ml^−1 penicillin, […] streptomycin and 10% heat-inactivated FCS, and containing anti-CD20, anti-CD30, and/or anti-CD47 antibodies, as indicated, at a cell concentration of 1M ml^−1. 220 μl of cell suspensions was added to each well. Plates were transferred to an incubator and imaged every 30 or 60 minutes using an Incucyte (Essen). Total red intensity for each well, averaged over 16 images per well, was calculated after applying a threshold for red intensity that excluded most or all cells at the first time point using top-hat background subtraction. Reported values represent the mean total red fluorescence intensity at each timepoint, minus the total red fluorescence at the initial timepoint (to remove signal from occasional autofluorescent debris), normalized to the initial total green fluorescence signal (to account for small variations in target cell density), of duplicate, triplicate, or quadruplicate wells, as indicated in the legend. […]

APMAP^KO Ramos cells = test: Time-lapse phagocytosis assay, uptake of pHrodo-labeled APMAP^KO Ramos cells by J774 macrophages with anti-CD20 antibodies and GPR84 agonists; conditions: at high concentrations of agonist, anti-CD20 antibodies (FIG. 12C)
Method: as §1

[1] = test system: Ramos Burkitt lymphoma cells; test: ADCP of Ramos Burkitt lymphoma cells by LPS-activated J774 macrophages; conditions: in the presence of LPS-activated J774 macrophages
Method: For the screens, cells were split into two conditions, each in duplicate: an untreated control group and ADCP treated group. In the ADCP group, for each round of treatment, Ramos cells were incubated with J774 macrophages, which had been seeded into 15 cm plates 48 h prior (at 5 M cells per plate) and treated with LPS (10 ng ml^−1) starting 24 h prior, in the presence of anti-CD20 antibodies (50 ng ml^−1) (CRISPRko screen) or both anti-CD20 antibodies (50 ng ml^−1) and anti-CD47 antibodies (100 ng ml-1) (CRISPRa screen). 25 M Ramos cells were added to each plate and incubated with J774 macrophages for 24 h, and were then removed from the macrophage-containing plates via two rounds of washing with complete RPMI media. Ramos cells were then allowed to recover in T-150 flasks for 24-72 h before the next round of treatment. At the end of the screen, 300 million cells were recovered from each condition and pelleted by centrifugation. […] The sgRNA sequences were amplified and sequenced using an Illumina NextSeq with ˜40 million reads per condition; ˜200× coverage per library element). […]
To establish a scalable platform for genetic screening for regulators of ADCP, conditions for antibody-stimulated uptake of cancer cells by macrophage cell lines were optimized, which, unlike primary macrophages, can readily be cultured at the ultra-high scales necessary for screening. […]

Row | Compound | antibody-dependent phagocytosis of Safe^KO cells (Safe^KO Ramos cells) | uptake of APMAP^KO cells (APMAP^KO Ramos cells) | phagocytosis of Ramos cells [1]
1 | CCCCCCSc1nc(O)cc(=O)[nH]1 [ZQ-16] | stimulated | inhibited | 
2 | CCCCCCCCNc1cc(=O)[nH]c(=O)[nH]1 [6-OAU, (octylamino) pyrimidine-2,4(1H,3H)-dione] | stimulated | inhibited | 
3 | CCCCCCCCCC(=O)O [capric acid] | stimulated | inhibited | 
4 | rituximab-biosimilar anti-CD20 antibodies: rituximab-biosimilar anti-CD20 antibodies used to drive ADCP |  |  | high rates of phagocytosis
